Measured values: US20230192700A1, “PYRAZOLOPYRAZINES ACTING ON CANCERS VIA INHIBITION OF CDK12” (Bayer Aktiengesellschaft, priority 2020, published 2023)
pIC50: −log10 of the molar value. Like-named read-outs stand apart in the source and are kept apart here.

Key:
[1] = tested on: BRCA1 mRNA expression in MDA-MB-231 cells; experiment: qRT-PCR assay: inhibition of BRCA1 mRNA expression in MDA-MB-231 cells; type: cell-based, human; conditions: 24 h exposure, BRCA1 mRNA normalised to GAPDH, median, read-out: RTqPCR-MDA-MB-231 IC50 [mol/l] BRCA1 (median)
Experimental: 3. qRT-PCR Assay: BRCA1, ATR, MCL1 in MDA-MB-231, CAL-120
Tissue cultured human MDA-MB-231 human breast cancer cells were plated in 500 microL per well at 200,000 cells/well in a 24 well microtiter plate. After 24 h, the cells were exposed continuously for 24 h to test substances (substances were added with Tecan HP D300 Dispenser). RNA was prepared using Qiagen RNeasy MiniKit (#74106), RNA was quantified using a NanoDrop Equipment, and 600 nano gamms of RNA was coverted to cDNA using a SuperScript VILO kit (Thermofisher #11755050) followed by qPCR amplification. BRCA1 and ATR gene expression was measured by RT-qPCR and normalised to GAPDH housekeeping gene expression. qPCR primer sets have been purchased from Thermo Fisher Scientific/Applied Biosystems: BRCA1, # Hs 01556193; ATR, #Hs 00992123; GAPDH, #Hs 03929097.

[2] = target: T1, CDK12/CyclinK (Homo sapiens, UniProt Q9NYV4); experiment: CDK12/CycK high ATP kinase assay (TR-FRET); type: biochemical; conditions: 2 mM ATP (high ATP); median; read-out: CDK12/CyclinK, 2 mM ATP (high ATP), IC50 - [mol/l] (median)
T1 construct: His-CDK12 (aa Q696-S1082); made in house; host or cells: Hi-5 insect cells (baculovirus co-infection with CycK and yeast CAK1)
Outline: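 Human His-tagged CDK12/CycK (about 0.75 nM) preincubated with compound 15 min, then reacted 60 min at 22 °C with 2 mM ATP and 1 µM biotinylated peptide in HEPES pH 7.5 buffer. Phospho-Ser62 c-Myc epitope detected by TR-FRET (665/620 nm ratio); data normalised to no-inhibitor and no-enzyme controls.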

T1 sequence (Q9NYV4 with tags, fused parts or gaps): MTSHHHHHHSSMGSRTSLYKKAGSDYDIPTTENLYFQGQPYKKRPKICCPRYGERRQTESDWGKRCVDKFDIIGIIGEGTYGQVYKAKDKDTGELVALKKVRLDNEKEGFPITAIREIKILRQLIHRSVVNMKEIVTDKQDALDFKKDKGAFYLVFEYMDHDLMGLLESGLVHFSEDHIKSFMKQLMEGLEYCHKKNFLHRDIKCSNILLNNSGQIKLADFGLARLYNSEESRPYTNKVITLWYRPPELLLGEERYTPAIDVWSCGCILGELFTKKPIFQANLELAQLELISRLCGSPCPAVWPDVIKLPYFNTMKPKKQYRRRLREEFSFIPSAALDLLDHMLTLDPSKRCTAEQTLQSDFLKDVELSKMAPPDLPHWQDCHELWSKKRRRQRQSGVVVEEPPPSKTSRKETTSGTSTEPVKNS
T1 sequence (O75909 with tags, fused parts or gaps partner limits assumed): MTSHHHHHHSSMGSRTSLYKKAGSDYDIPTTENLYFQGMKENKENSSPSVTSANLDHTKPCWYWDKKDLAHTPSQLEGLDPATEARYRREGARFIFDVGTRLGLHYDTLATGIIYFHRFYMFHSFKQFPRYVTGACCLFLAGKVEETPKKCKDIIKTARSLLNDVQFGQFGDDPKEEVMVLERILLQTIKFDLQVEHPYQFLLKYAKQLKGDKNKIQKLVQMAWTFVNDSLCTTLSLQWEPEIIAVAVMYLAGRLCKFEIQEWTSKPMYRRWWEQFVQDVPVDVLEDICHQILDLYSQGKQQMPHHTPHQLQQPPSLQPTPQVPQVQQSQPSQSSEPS

pIC50 [2] | Structure (SMILES) | pIC50 ([1]; Homo sapiens, MDA-MB-231, 24 h) | pIC50 [1]
< 4.70 | CC(C)n1nc(NCc2nc3ccccc3[nH]2)c2ncc(C3CC3)nc21 [Example 14, N-[(1H-benzimidazol-2-yl)methyl]-6-cyclopropyl-1-(propan-2-yl)-1H-pyrazolo[3,4-b]pyrazin-3-amine] | 7.37 | 
< 4.70 | O[C@H]1C[C@@H](n2nc(NCc3nc4ccccc4[nH]3)c3ncc(C4CC4)nc32)C1 [Example 40, cis-3-(3-{[(1H-benzimidazol-2-yl)methyl]amino}-6-cyclopropyl-1H-pyrazolo[3,4-b]pyrazin-1-yl)cyclobutan-1-ol] | 8.06 | 
< 4.70 | COCCC(C)n1nc(NCc2nc3ccccc3[nH]2)c2ncc(C3CC3)nc21 (single isomer, unassigned; (+)) [Example 59, (+)-N-[(1H-benzimidazol-2-yl)methyl]-6-cyclopropyl-1-[4-methoxybutan-2-yl]-1H-pyrazolo[3,4-b]pyrazin-3-amine] |  | 6.61
< 4.70 | CN1CCC(n2nc(NCc3nc4cc(Cl)c(Cl)cc4[nH]3)c3ncc(C4CC4)nc32)CC1 [Example 19, 6-cyclopropyl-N-[(5,6-dichloro-1H-benzimidazol-2-yl)methyl]-1-(1-methylpiperidin-4-yl)-1H-pyrazolo[3,4-b]pyrazin-3-amine] | 8.07 | 
5.21 | O[C@H]1CC[C@H](n2nc(NCc3nc4ccccc4[nH]3)c3ncc(C4CC4)nc32)CC1 [Example 50, trans-4-(3-{[(1H-benzimidazol-2-yl)methyl]amino}-6-cyclopropyl-1H-pyrazolo[3,4-b]pyrazin-1-yl)cyclohexan-1-ol] | 7.76 | 
< 5.00 | Fc1ccc2[nH]c(CNc3nn(C4CCOCC4)c4nc(C5CC5)cnc34)nc2c1 [Example 53, 6-cyclopropyl-N-[(5-fluoro-1H-benzimidazol-2-yl)methyl]-1-(oxan-4-yl)-1H-pyrazolo[3,4-b]pyrazin-3-amine] | 7.96 | 
4.76 | CN1CCC(n2nc(NCc3nc4cc(C(F)(F)F)ccc4[nH]3)c3ncc(C4CC4)nc32)CC1 [Example 25, 6-cyclopropyl-1-(1-methylpiperidin-4-yl)-N-{[5-(trifluoromethyl)-1H-benzimidazol-2-yl]methyl}-1H-pyrazolo[3,4-b]pyrazin-3-amine] | 8.23 | 
< 4.70 | O[C@H]1C[C@@H](Cn2nc(NCc3nc4ccccc4[nH]3)c3ncc(C4CC4)nc32)C1 [Example 71, cis-3-[(3-{[(1H-benzimidazol-2-yl)methyl]amino}-6-cyclopropyl-1H-pyrazolo[3,4-b]pyrazin-1-yl)methyl]cyclobutan-1-ol] | 8.52 | 
< 4.70 | CN1CCC(n2nc(NCc3nc4cc(Cl)c(F)cc4[nH]3)c3ncc(C4CC4)nc32)CC1 [Example 29, N-[(5-chloro-6-fluoro-1H-benzimidazol-2-yl)methyl]-6-cyclopropyl-1-(1-methylpiperidin-4-yl)-1H-pyrazolo[3,4-b]pyrazin-3-amine] | 8.02 | 
< 4.70 | CN1CCC(n2nc(NCc3nc4c(Cl)c(F)ccc4[nH]3)c3ncc(C4CC4)nc32)CC1 [Example 31, N-[(4-chloro-5-fluoro-1H-benzimidazol-2-yl)methyl]-6-cyclopropyl-1-(1-methylpiperidin-4-yl)-1H-pyrazolo[3,4-b]pyrazin-3-amine] | 8.30 | 
4.86 | Fc1ccc2[nH]c(CNc3nn(C4CCOCC4)c4nc(C5CC5)cnc34)nc2c1F [Example 32, 6-cyclopropyl-N-[(4,5-difluoro-1H-benzimidazol-2-yl)methyl]-1-(oxan-4-yl)-1H-pyrazolo[3,4-b]pyrazin-3-amine] | 7.54 | 
< 4.70 | COc1cccc2[nH]c(CNc3nn(C4CCN(C)CC4)c4nc(C5CC5)cnc34)nc12 [Example 2, 6-cyclopropyl-N-[(4-methoxy-1H-benzimidazol-2-yl)methyl]-1-(1-methylpiperidin-4-yl)-1H-pyrazolo[3,4-b]pyrazin-3-amine] | 8.07 | 
< 4.70 | CN1CCC(n2nc(NCc3nc4c(Br)cccc4[nH]3)c3ncc(C4CC4)nc32)CC1 [Example 20, N-[(4-bromo-1H-benzimidazol-2-yl)methyl]-6-cyclopropyl-1-(1-methylpiperidin-4-yl)-1H-pyrazolo[3,4-b]pyrazin-3-amine] | 7.69 | 
< 4.70 | CN1CCC(n2nc(NCc3nc4ccccc4[nH]3)c3ncc(C4CC4)nc32)C1 (racemic) [Example 35, (±)-N-[(1H-benzimidazol-2-yl)methyl]-6-cyclopropyl-1-(1-methylpyrrolidin-3-yl)-1H-pyrazolo[3,4-b]pyrazin-3-amine] | 7.52 | 
< 4.70 | O=CO.c1ccc(-n2nc(NCc3nc4ccccc4[nH]3)c3ncc(C4CC4)nc32)cc1 [Example 13, formic acid—N-[(1H-benzimidazol-2-yl)methyl]-6-cyclopropyl-1-phenyl-1H-pyrazolo[3,4-b]pyrazin-3-amine (1/1)] | 7.41 | 
4.74 | COc1cccc2[nH]c(CNc3nn(C4CCOCC4)c4nc(C5CC5)cnc34)nc12 [Example 24, 6-cyclopropyl-N-[(4-methoxy-1H-benzimidazol-2-yl)methyl]-1-(oxan-4-yl)-1H-pyrazolo[3,4-b]pyrazin-3-amine] | 8.32 | 
< 4.70 | CC(C)(O)CCn1nc(NCc2nc3ccccc3[nH]2)c2ncc(C3CC3)nc21 [Example 76, 4-(3-{[(1H-benzimidazol-2-yl)methyl]amino}-6-cyclopropyl-1H-pyrazolo[3,4-b]pyrazin-1-yl)-2-methylbutan-2-ol] | 8.13 | 
< 4.70 | Cn1nc(NCc2nc3ccccc3[nH]2)c2ncc(C3CC3)nc21 [Example 15, N-[(1H-benzimidazol-2-yl)methyl]-6-cyclopropyl-1-methyl-1H-pyrazolo[3,4-b]pyrazin-3-amine] | 6.88 | 
< 4.70 | Cc1cccc2[nH]c(CNc3nn(C4CCOCC4)c4nc(C5CC5)cnc34)nc12 [Example 33, 6-cyclopropyl-N-[(4-methyl-1H-benzimidazol-2-yl)methyl]-1-(oxan-4-yl)-1H-pyrazolo[3,4-b]pyrazin-3-amine] | 7.77 | 
< 4.70 | COCCC(C)n1nc(NCc2nc3ccccc3[nH]2)c2ncc(C3CC3)nc21 (single isomer, unassigned; (-)) [Example 58, (−)-N-[(1H-benzimidazol-2-yl)methyl]-6-cyclopropyl-1-[4-methoxybutan-2-yl]-1H-pyrazolo[3,4-b]pyrazin-3-amine] |  | 7.55
< 4.70 | c1ccc2[nH]c(CNc3nn(C4CCOC4)c4nc(C5CC5)cnc34)nc2c1 (single isomer, unassigned) [Example 17, (+) or (−)-N-[(1H-benzimidazol-2-yl)methyl]-6-cyclopropyl-1-(oxolan-3-yl)-1H-pyrazolo[3,4-b]pyrazin-3-amine] | 7.96 | 
< 4.70 | CC1CC(n2nc(NCc3nc4ccccc4[nH]3)c3ncc(C4CC4)nc32)CCN1C (racemic) [Example 41, (±)-cis/trans-N-[(1H-benzimidazol-2-yl)methyl]-6-cyclopropyl-1-(1,2-dimethylpiperidin-4-yl)-1H-pyrazolo[3,4-b]pyrazin-3-amine] | 7.69 | 
≤ 4.94 | CN1CCC(n2nc(NCc3nc4c(F)cccc4[nH]3)c3ncc(C4CC4)nc32)CC1 [Example 3, 6-cyclopropyl-N-[(4-fluoro-1H-benzimidazol-2-yl)methyl]-1-(1-methylpiperidin-4-yl)-1H-pyrazolo[3,4-b]pyrazin-3-amine] | 8.06 | 
< 4.70 | CN1CCC(n2nc(NCc3nc4cc(F)ccc4[nH]3)c3ncc(C4CC4)nc32)CC1 [Example 4, 6-cyclopropyl-N-[(5-fluoro-1H-benzimidazol-2-yl)methyl]-1-(1-methylpiperidin-4-yl)-1H-pyrazolo[3,4-b]pyrazin-3-amine] | 7.77 | 
< 4.70 | Cc1ccc2[nH]c(CNc3nn(C4CCN(C)CC4)c4nc(C5CC5)cnc34)nc2c1C [Example 28, 6-cyclopropyl-N-[(4,5-dimethyl-1H-benzimidazol-2-yl)methyl]-1-(1-methylpiperidin-4-yl)-1H-pyrazolo[3,4-b]pyrazin-3-amine] | 7.77 | 
< 4.70 | CN1CCC(n2nc(NCc3nc4ccccc4[nH]3)c3ncc(C4CC4)nc32)C1 (single isomer, unassigned) [Example 78, (+) or (−)-N-[(1H-benzimidazol-2-yl)methyl]-6-cyclopropyl-1-(1-methylpyrrolidin-3-yl)-1H-pyrazolo[3,4-b]pyrazin-3-amine] | 7.81 | 
